Laboratory results: the NIST ThermoML archive (doi:10.1021/acs.jced.6b00269)

Conditions: for viscosity / mass density: 101.33 kPa, Liquid; for viscosity: Cone and plate viscometry; for mass density: Vibrating tube method; for Normal melting temperature: Crystal, DTA; for Glass transition temperature: DSC

CC[P+](CC)(CC)COCCOC.O=[N+]([O-])c1cn[n-]c1
Conditions | Glass transition temperature [°C] | Normal melting temperature [°C] | mass density [kg/m3] | viscosity [mPa·s]
– | -76 | -15 | – | –
278.15 K | – | – | – | 309
283.15 K | – | – | 1149.2 | 216
288.15 K | – | – | 1145.8 | 156
293.15 K | – | – | 1142.4 | 116
295.15 K | – | – | 1141 | –
298.15 K | – | – | 1139 | 88
303.15 K | – | – | 1135.6 | 69
308.15 K | – | – | 1132.2 | 55
313.15 K | – | – | 1128.9 | –
318.15 K | – | – | 1125.5 | –
323.15 K | – | – | 1122.2 | –
328.15 K | – | – | 1118.9 | –
333.15 K | – | – | 1115.6 | –
338.15 K | – | – | 1112.3 | –
343.15 K | – | – | 1109.1 | –
348.15 K | – | – | 1105.8 | –
353.15 K | – | – | 1102.6 | –

CCC=C[P+](CC)(CC)CC.O=[N+]([O-])c1cn[n-]c1 [(buten-1-yl)triethylphosphonium 4-nitropyrazolide]
Conditions | Normal melting temperature [°C] | viscosity [mPa·s]
– | 39 | –
298.15 K | – | 134
303.15 K | – | 102
308.15 K | – | 79
313.15 K | – | 63
318.15 K | – | 52

CCCCCCCCC[P+](CC)(CC)CC.O=[N+]([O-])c1cn[n-]c1 [triethylnonylphosphonium 4-nitropyrazolide]
Conditions | Glass transition temperature [°C] | Normal melting temperature [°C] | mass density [kg/m3] | viscosity [mPa·s]
– | -72 | 16 | – | –
278.15 K | – | – | – | 1370
283.15 K | – | – | 1031 | 888
288.15 K | – | – | 1027.9 | 593
293.15 K | – | – | 1024.9 | 409
295.15 K | – | – | 1023.6 | –
298.15 K | – | – | 1021.8 | 291
303.15 K | – | – | 1018.8 | 213
308.15 K | – | – | 1015.8 | 160
313.15 K | – | – | 1012.9 | 123
318.15 K | – | – | 1009.9 | 96
323.15 K | – | – | 1007 | 77
328.15 K | – | – | 1004 | 63
333.15 K | – | – | 1001.1 | 52
338.15 K | – | – | 998.2 | –
343.15 K | – | – | 995.3 | –
348.15 K | – | – | 992.4 | –
353.15 K | – | – | 989.5 | –

CCC=Cn1cc[n+](C)c1C.O=[N+]([O-])c1cn[n-]c1 [1-but-1-enyl-2,3-dimethylimidazolium 4-nitropyrazolide]
Conditions | Glass transition temperature [°C] | mass density [kg/m3] | viscosity [mPa·s]
– | -53 | – | –
278.15 K | – | – | 6650
283.15 K | – | 1191.5 | 3260
288.15 K | – | 1187.7 | 1720
293.15 K | – | 1184.2 | 973
295.15 K | – | 1182.8 | –
298.15 K | – | 1180.8 | 590
303.15 K | – | 1177.5 | 380
308.15 K | – | 1174.1 | 255
313.15 K | – | 1170.8 | 179
318.15 K | – | 1167.6 | 131
323.15 K | – | 1164.4 | 99
328.15 K | – | 1161.1 | 77
333.15 K | – | 1157.9 | 62
338.15 K | – | 1154.7 | 50
343.15 K | – | 1151.5 | –
348.15 K | – | 1148.3 | –
353.15 K | – | 1145.2 | –

CC(=O)[O-].CCCCCCn1cc[n+](C)c1 [3-hexyl-1-methylimidazolium acetate]
Conditions | mass density [kg/m3] | viscosity [mPa·s]
278.15 K | – | 12300
283.15 K | 1025.7 | 6460
288.15 K | 1022.7 | 3550
293.15 K | 1019.6 | 2060
295.15 K | 1018.4 | –
298.15 K | 1016.6 | 1270
303.15 K | 1013.5 | 816
308.15 K | 1010.4 | 537
313.15 K | 1007.4 | 372
318.15 K | 1004.5 | 265
323.15 K | 1001.5 | 194
328.15 K | 998.5 | 147
333.15 K | 995.5 | 113
338.15 K | 992.6 | 90
343.15 K | 989.6 | –
348.15 K | 986.7 | –
353.15 K | 983.7 | –

CCCCCCn1cc[n+](C)c1.N#Cc1ccc[n-]1 [1-hexyl-3-methylimidazolium 2-cyanopyrrolide]
Conditions | Glass transition temperature [°C] | mass density [kg/m3] | viscosity [mPa·s]
– | -65 | – | –
278.15 K | – | – | 1540
283.15 K | – | 1031 | 902
288.15 K | – | 1027.9 | 553
293.15 K | – | 1024.9 | 355
295.15 K | – | 1023.6 | –
298.15 K | – | 1021.8 | 239
303.15 K | – | 1018.8 | 167
308.15 K | – | 1015.8 | 122
313.15 K | – | 1012.8 | 91
318.15 K | – | 1009.9 | 70
323.15 K | – | 1006.9 | 55
328.15 K | – | 1003.9 | –
333.15 K | – | 1001 | –
338.15 K | – | 998 | –
343.15 K | – | 995.1 | –
348.15 K | – | 992.1 | –
353.15 K | – | 989.1 | –

CCCC[P+](CC)(CC)CC.Cc1ncc([N+](=O)[O-])[n-]1 [butyltriethylphosphonium 2-methyl-5-nitroimidazolide]
Conditions | Glass transition temperature [°C] | Normal melting temperature [°C] | mass density [kg/m3] | viscosity [mPa·s]
– | -71 | 17 | – | –
278.15 K | – | – | – | 2180
283.15 K | – | – | 1074.4 | 1350
288.15 K | – | – | 1071.3 | 858
293.15 K | – | – | 1068.3 | 569
295.15 K | – | – | 1067.1 | –
298.15 K | – | – | 1065.3 | 391
303.15 K | – | – | 1062.3 | 277
308.15 K | – | – | 1059.3 | 202
313.15 K | – | – | 1056.5 | 150
318.15 K | – | – | 1053.6 | 115
323.15 K | – | – | 1050.7 | 90
328.15 K | – | – | 1047.8 | 72
333.15 K | – | – | 1044.9 | 58
338.15 K | – | – | 1042.1 | –
343.15 K | – | – | 1039.2 | –
348.15 K | – | – | 1036.4 | –
353.15 K | – | – | 1033.5 | –

CCCCCCCCCCCCCC[P+](CCCCCC)(CCCCCC)CCCCCC.Clc1nc[n-]c1Cl [trihexyl(tetradecyl)phosphonium 4,5-dichloroimidazolide]
Conditions | Glass transition temperature [°C] | mass density [kg/m3] | viscosity [mPa·s]
– | -64 | – | –
278.15 K | – | – | 4040
283.15 K | – | 974.1 | 2580
288.15 K | – | 970.8 | 1680
293.15 K | – | 967.5 | 1140
295.15 K | – | 966.2 | –
298.15 K | – | 964.4 | 789
303.15 K | – | 961.3 | 566
308.15 K | – | 958.3 | 415
313.15 K | – | 955.2 | 308
318.15 K | – | 952.2 | 234
323.15 K | – | 949.1 | 182
328.15 K | – | 946.2 | 144
333.15 K | – | 943.2 | 116
338.15 K | – | 940.2 | –
343.15 K | – | 937.2 | –
348.15 K | – | 934.2 | –
353.15 K | – | 931.3 | –
